ChEMBL document CHEMBL1154361, “Oxiranylmethyloxy or thiiranylmethyloxy-azaxanthones and -acridone analogues as potential topoisomerase I inhibitors” (Bioorg Med Chem Lett, 2009)
Counter-ions that a name gives are not always drawn.

Legend:
HeLa = assay: Cytotoxicity against human HeLa cells by MTT assay; assay type: functional, cell-based
HT-29 = assay: Cytotoxicity against human HT-29 cells by MTT assay; assay type: functional, cell-based
DU-145 = assay: Cytotoxicity against human DU145 cells by MTT assay; assay type: functional, cell-based
MDA-MB-231 = assay: Cytotoxicity against human MDA-MB-231 cells by MTT assay; assay type: functional, cell-based
HL-60 = assay: Cytotoxicity against human HL60 cells by MTT assay; assay type: functional, cell-based
[1] = target: T1, DNA topoisomerase 1 (Homo sapiens) (UniProt P11387); assay: Inhibition of human topoisomerase 1 at 20 uM
T1 sequence (whole entry): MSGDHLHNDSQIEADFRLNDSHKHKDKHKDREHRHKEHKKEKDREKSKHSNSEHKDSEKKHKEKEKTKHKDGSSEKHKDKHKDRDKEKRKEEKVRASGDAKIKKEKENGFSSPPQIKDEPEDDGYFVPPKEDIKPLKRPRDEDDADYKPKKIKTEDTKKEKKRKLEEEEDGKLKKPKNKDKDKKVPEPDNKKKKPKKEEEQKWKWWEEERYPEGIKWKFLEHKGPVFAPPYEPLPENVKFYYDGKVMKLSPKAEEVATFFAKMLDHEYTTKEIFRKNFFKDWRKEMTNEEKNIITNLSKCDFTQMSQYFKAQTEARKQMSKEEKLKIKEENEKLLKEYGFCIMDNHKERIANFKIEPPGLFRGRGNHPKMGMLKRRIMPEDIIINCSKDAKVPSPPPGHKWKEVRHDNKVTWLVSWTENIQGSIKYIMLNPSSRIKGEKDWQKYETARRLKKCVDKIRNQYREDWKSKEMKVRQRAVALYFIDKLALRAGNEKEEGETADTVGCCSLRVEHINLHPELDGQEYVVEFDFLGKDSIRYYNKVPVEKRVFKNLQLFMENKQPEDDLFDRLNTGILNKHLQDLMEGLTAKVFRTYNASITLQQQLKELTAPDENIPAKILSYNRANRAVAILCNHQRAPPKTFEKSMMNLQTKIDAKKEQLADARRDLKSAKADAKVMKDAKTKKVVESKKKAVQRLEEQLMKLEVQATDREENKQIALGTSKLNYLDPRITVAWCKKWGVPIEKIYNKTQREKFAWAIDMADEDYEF

[2] = target: T1, DNA topoisomerase 1 (Homo sapiens); assay: Inhibition of human topoisomerase 1 at 100 uM
[3] = target: DNA topoisomerase 2-alpha (Homo sapiens) (UniProt P11388); assay: Inhibition of human topoisomerase 2 at 20 uM
[4] = target: DNA topoisomerase 2-alpha (Homo sapiens) (UniProt P11388); assay: Inhibition of human topoisomerase 2 at 100 uM

DNA topoisomerase 2-alpha (Homo sapiens), sequence (P11388 whole entry): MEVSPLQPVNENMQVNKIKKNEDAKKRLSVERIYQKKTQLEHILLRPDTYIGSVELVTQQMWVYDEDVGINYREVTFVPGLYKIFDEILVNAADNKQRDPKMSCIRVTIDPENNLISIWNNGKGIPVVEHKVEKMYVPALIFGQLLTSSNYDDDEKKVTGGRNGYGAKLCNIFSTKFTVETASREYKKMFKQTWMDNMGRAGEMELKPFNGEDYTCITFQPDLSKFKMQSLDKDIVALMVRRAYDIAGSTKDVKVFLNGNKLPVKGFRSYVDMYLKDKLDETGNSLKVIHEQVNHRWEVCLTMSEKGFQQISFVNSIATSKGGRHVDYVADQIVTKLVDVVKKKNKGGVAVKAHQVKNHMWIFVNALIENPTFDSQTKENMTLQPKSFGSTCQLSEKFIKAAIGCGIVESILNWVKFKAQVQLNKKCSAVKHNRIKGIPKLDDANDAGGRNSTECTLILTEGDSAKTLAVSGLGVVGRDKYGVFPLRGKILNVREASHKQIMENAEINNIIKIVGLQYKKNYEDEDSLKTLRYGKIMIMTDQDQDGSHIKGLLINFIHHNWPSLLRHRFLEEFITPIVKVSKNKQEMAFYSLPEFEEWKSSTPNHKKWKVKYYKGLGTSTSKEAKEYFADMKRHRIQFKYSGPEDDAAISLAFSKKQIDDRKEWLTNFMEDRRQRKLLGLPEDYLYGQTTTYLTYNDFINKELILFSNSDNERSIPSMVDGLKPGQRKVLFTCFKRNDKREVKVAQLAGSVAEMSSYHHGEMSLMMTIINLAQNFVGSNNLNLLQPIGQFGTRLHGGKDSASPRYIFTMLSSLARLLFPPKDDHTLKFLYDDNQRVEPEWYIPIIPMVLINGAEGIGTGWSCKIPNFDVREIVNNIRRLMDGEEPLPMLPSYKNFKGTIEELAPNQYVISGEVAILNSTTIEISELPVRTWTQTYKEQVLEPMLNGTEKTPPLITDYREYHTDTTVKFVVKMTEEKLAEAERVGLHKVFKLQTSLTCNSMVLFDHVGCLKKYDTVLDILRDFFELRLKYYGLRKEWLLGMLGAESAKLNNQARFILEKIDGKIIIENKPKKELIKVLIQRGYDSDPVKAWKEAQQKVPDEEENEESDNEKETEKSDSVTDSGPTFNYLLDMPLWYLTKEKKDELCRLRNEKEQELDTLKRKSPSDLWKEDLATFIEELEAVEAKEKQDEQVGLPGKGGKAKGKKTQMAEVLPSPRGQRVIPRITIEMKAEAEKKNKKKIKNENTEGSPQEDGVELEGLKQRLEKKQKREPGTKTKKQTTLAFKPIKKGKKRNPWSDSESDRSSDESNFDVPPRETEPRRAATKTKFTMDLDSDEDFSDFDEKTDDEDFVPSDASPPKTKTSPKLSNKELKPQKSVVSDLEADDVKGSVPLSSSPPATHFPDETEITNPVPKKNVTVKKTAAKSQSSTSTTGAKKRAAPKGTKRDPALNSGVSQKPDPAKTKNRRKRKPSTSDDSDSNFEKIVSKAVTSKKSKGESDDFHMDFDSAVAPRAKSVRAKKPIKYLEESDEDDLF

Row | Compound | IC50 (HeLa) [µM] | IC50 (HT-29) [µM] | IC50 (DU-145) [µM] | IC50 (MDA-MB-231) [µM] | IC50 (HL-60) [µM] | inhibition [1] [%] | inhibition [2] [%] | inhibition [3] [%] | inhibition [4] [%]
1 | O=c1c2cccnc2oc2cc(OCC3CS3)cc(O)c12 (centres undefined) | 6.9 | > 50 | 15.8 | 18.2 | 20.1 | 26.7 | 50.3 | 9.2 | 19.5
2 | O=c1c2ccccc2[nH]c2cc(OCC3CO3)cc(O)c12 (centres undefined) | > 50 | > 50 | > 50 | 18.6 | 12.5 | 10.8 | 9.1 | 12.9 | 18.1
3 | O=c1c2cccnc2oc2cc(OCC3CO3)cc(O)c12 (centres undefined) | 22.1 | 26.3 | 8.11 | 24.3 | 24.8 | 1.8 | 0 | 8.3 | 30.3
4 | O=c1c2ccccc2[nH]c2cc(OCC3CO3)cc(OCC3CO3)c12 (centres undefined) | > 50 | 29.3 | 30.9 | 28.9 | 22 | 2.5 | 0 | 8.7 | 13.2
5 | O=c1c2ccccc2[nH]c2cc(OCC3CS3)cc(O)c12 (centres undefined) | > 50 | 33 | 23 | 21.4 | 23 | 0 | 2.3 | 8.1 | 8.7
6 | COc1cc([C@@H]2c3cc4c(cc3[C@@H](O[C@@H]3O[C@@H]5CO[C@@H](C)O[C@H]5[C@H](O)[C@H]3O)[C@H]3COC(=O)[C@H]23)OCO4)cc(OC)c1O [ETOPOSIDE] | 2.15 | 6.32 | 5.16 | 3.5 | 0.93 |  |  | 13.4 | 
7 | CC[C@@]1(O)C(=O)OCc2c1cc1n(c2=O)Cc2cc3ccccc3nc2-1 [CAMPTOTHECIN] | 0.58 | 1.07 | 1 | 0.68 | 0.067 |  |  |  | 
8 | O=c1c2ccccc2[nH]c2cc(OCC3CS3)cc(OCC3CS3)c12 (centres undefined) | 11.1 | 23.2 | 23.2 | 8.02 | 7.73 | 0 | 0 | 8.5 | 6.9
9 | O=c1c2cccnc2oc2cc(OCC3CS3)cc(OCC3CS3)c12 (centres undefined) | 9.96 | > 50 | 21 | 13 | 10.5 | 5.2 | 0 | 8.6 | 6.7
10 | COc1cccc2c1C(=O)c1c(O)c3c(c(O)c1C2=O)C[C@@](O)(C(=O)CO)C[C@@H]3O[C@H]1C[C@H](N)[C@H](O)[C@H](C)O1 [DOXORUBICIN HYDROCHLORIDE] | 1.08 | 3.9 | 2.54 | 1.67 | 0.88 |  |  |  | 
